# Assay: collision cross section in nitrogen (drift tube, single-field); higher = larger gas-phase ion size
# [1] = ion type: [M+H], ion source: APCI, ion mode: Positive
# [2] = ion type: [M+H], ion source: ESI, ion mode: Positive
# [3] = ion type: [M+Na], ion source: ESI, ion mode: Positive
# [4] = ion type: [M-H], ion source: ESI, ion mode: Negative
# 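Also: chemical standards at 10 µM analysed by drift tube IMS-QTOF MS in about 3.95 torr nitrogen, mean of duplicate injections differing ≤1%, mass error below 10 ppm.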
collision cross section in nitrogen [2] [Å²],collision cross section in nitrogen [3] [Å²],collision cross section in nitrogen [4] [Å²],Compound,collision cross section in nitrogen [1] [Å²],"collision cross section in nitrogen (ion type: [M+], ion source: APCI, ion mode: Positive) [Å²]"
,,172.2,C[C@]12CC[C@H]3C(=CCc4cc(O)ccc43)[C@@H]1CCC2=O [Equilin],,
257.1,262.9,,CC[C@H]1OC(=O)[C@H](C)[C@@H](O[C@H]2C[C@@](C)(OC)[C@@H](O)[C@H](C)O2)[C@H](C)[C@@H](O[C@@H]2O[C@H](C)C[C@H](N(C)C)[C@H]2O)[C@](C)(O)C[C@@H](C)C(=O)[C@H](C)[C@@H](O)[C@]1(C)O [Erythromycin],258.5,
,,220.4,C[C@]12CC[C@@H]3c4ccc(O)cc4CC[C@H]3[C@@H]1CC[C@@H]2OC(=O)CCC1CCCC1 [Estradiol cypionate],,
,,178.1,C[C@]12CC[C@@H]3c4ccc(O)cc4CC[C@H]3[C@@H]1C[C@@H](O)[C@@H]2O [Estriol],,
,,135.2,CCc1cc(C(N)=S)ccn1 [Ethionamide],137.5,
153.2,,,CCOc1ccc2c(c1)C(C)=CC(C)(C)N2 [Ethoxyquin],153.1,
146.4,,140.9,"CCOC(=O)c1sc(N)nc1C(F)(F)F [Ethyl 2-amino-4-(trifluoromethyl)-1,3-thiazole-5-carboxylate]",155.3,
,180.6,,"CCOC(=O)C(C#N)=C(c1ccccc1)c1ccccc1 [Ethyl 2-cyano-3,3-diphenylacrylate]",,
,162,,CCCCN(CCC(=O)OCC)C(C)=O [Ethyl 3-(N-butylacetamido)propionate],149.3,
,,137.7,CCOC(=O)c1cccc(O)c1 [Ethyl 3-hydroxybenzoate],,
169.5,187.8,,"CCOC(=O)C1=NOC(c2ccccc2)(c2ccccc2)C1 [Ethyl 5,5-diphenyl-2-isoxazoline-3-carboxylate]",,
154.5,164.9,155.5,"CCOC(=O)C1=NN(c2ccccc2)C(=O)C1 [Ethyl 5-oxo-1-phenyl-4,5-dihydro-1H-pyrazole-3-carboxylate]",154.1,
,171.4,,CCOC(=O)NCCC[Si](OCC)(OCC)OCC [Ethyl [3-(triethoxysilyl)propyl]carbamate],,
,155.9,,CCOC(=O)CC(=O)c1ccccc1 [Ethyl benzoylacetate],,
,,154.6,CCCCCCCCCC(=O)OCC [Ethyl decanoate],,
,,162.3,CCCCCCCCCCCC(=O)OCC [Ethyl dodecanoate],,
,,177.9,CCCCCCCCCCCCCCCC(=O)OCC [Ethyl hexadecanoate],,
,,149.5,CCCCCCCC(=O)OCC [Ethyl octanoate],,
,,169.8,CCCCCCCCCCCCCC(=O)OCC [Ethyl tetradecanoate],,
,144.8,,CS(=O)(=O)OCCOS(C)(=O)=O [Ethylene dimethanesulfonate],,
,189.7,,O=C(OCCOCCOCCOC(=O)c1ccccc1)c1ccccc1 [Ethylenebis(oxyethylene) dibenzoate],,
,,136.7,CCOC(=O)c1ccc(O)cc1 [Ethylparaben],,
,,151,CCC(C(=O)NC(N)=O)c1ccccc1 (configuration not stated) [Ethylphenylacetylurea],,
,249.8,239.5,COc1cc([C@@H]2c3cc4c(cc3[C@@H](O[C@@H]3O[C@@H]5CO[C@@H](C)O[C@H]5[C@H](O)[C@H]3O)[C@H]3COC(=O)[C@H]23)OCO4)cc(OC)c1O [Etoposide],,
253.6,,257.6,CCN(Cc1cccc(S(=O)(=O)O)c1)c1ccc(C(=C2C=CC(=[N+](CC)Cc3cccc(S(=O)(=O)O)c3)C=C2)c2ccccc2S(=O)(=O)[O-])cc1 [FD&C Blue No. 1],,
254.3,261.8,261.9,CCN(Cc1cccc(S(=O)(=O)O)c1)c1ccc(C(=C2C=CC(=[N+](CC)Cc3cccc(S(=O)(=O)[O-])c3)C=C2)c2ccccc2)cc1 [FD&C Green No. 1],,
259,260.8,260.3,CCN(Cc1cccc(S(=O)(=O)O)c1)c1ccc(C(=C2C=CC(=[N+](CC)Cc3cccc(S(=O)(=O)O)c3)C=C2)c2ccc(O)cc2S(=O)(=O)[O-])cc1 [FD&C Green No. 3],,
211.4,,217.9,O=C1OC2(c3ccccc31)c1cc(I)c(O)c(I)c1Oc1c2cc(I)c(O)c1I [FD&C Red 3],211.7,
,,208.6,Cc1cc(C)c(S(=O)(=O)O)cc1N=Nc1cc(S(=O)(=O)O)c2ccccc2c1O [FD&C Red 4],,
,,203.1,O=S(=O)(O)c1ccc(N=Nc2c(O)ccc3cc(S(=O)(=O)O)ccc23)cc1 [FD&C Yellow 6],,

Compound,collision cross section in nitrogen [2] [Å²],collision cross section in nitrogen [3] [Å²],collision cross section in nitrogen [4] [Å²],collision cross section in nitrogen [1] [Å²],"collision cross section in nitrogen (ion type: [M+], ion source: APCI, ion mode: Positive) [Å²]"
Fc1ccc([C@@]2(Cn3cncn3)O[C@@H]2c2ccccc2Cl)cc1 [Epoxiconazole],176.6,191.3,,176.9,
CCC1COC(Cn2cncn2)(c2ccc(Cl)cc2Cl)O1 (configuration not stated) [Etaconazole],174.1,189.3,,175.4,
CCOc1nc(NC)nc(NC(=O)NS(=O)(=O)c2ccccc2C(=O)OC)n1 [Ethametsulfuron-methyl],197.6,,196,,
CCSCc1ccccc1OC(=O)NC [Ethiofencarb],,153.7,,,
CCOP(=S)(OCC)SCSP(=S)(OCC)OCC [Ethion],,182.3,,,
CCCCc1c(C)nc(NCC)nc1O [Ethirimol],152,167.3,155.2,152.1,
C#C[C@]1(O)CC[C@H]2[C@@H]3CCC4=CC(=O)CC[C@]4(C)[C@H]3CC[C@@]21C [Ethisterone],,204.6,,180.2,
CCCSP(=O)(OCC)SCCC [Ethoprop],151.5,169.5,,151.3,
CCN(CCO)CCO [Ethyl diethanolamine],125.8,,,125.6,
C(COCC1CO1)OCC1CO1 (configuration not stated) [Ethylene glycol diglycidyl ether],,135.8,,,
CCOc1ccc(C(C)(C)COCc2cccc(Oc3ccccc3)c2)cc1 [Etofenprox],,191,,,
CCOc1cc(C(C)(C)C)ccc1C1COC(c2c(F)cccc2F)=N1 (configuration not stated) [Etoxazole],186.5,196,,186.3,186.5
C=CCc1ccc(OC(=O)Cc2ccccc2)c(OC)c1 [Eugenyl phenylacetate],,175.7,,,
